The text below walks through data of patent publication US20200253929A1, “TREATMENT OF EPILEPSY” (priority 2017, published 2020).

SMILES strings stand for the structures.

In one data set the test system is NMRI mice. As to the kind of experiment: Mouse 6-Hz (44 mA) psychomotor seizure model. The format is in vivo. The settings on record: for mean seizure duration / mice protected against induced seizures: 30 min before electrical stimulation. An excerpt: Although the zebrafish model has a high degree of genetic, physiological and pharmacological conservation^13, it is more distinct from humans than mammals. Therefore, we were interested to see if the observed antiseizure properties of azaspirofuran A and pseurotin A2 would translate to a rodent model. The mouse 6-Hz (44 mA) psychomotor seizure model was chosen, because it can detect compounds with novel antiseizure mechanisms and with potential against drug-resistant seizures [Barton et al. (2001) Epilepsy Res 47, 217-227; Wilcox et al. (2013) Epilepsia 54 S4, 24-34]. In this model drug-resistant focal impaired awareness seizures [Fisher et al. (2017) Epilepsia 58, 531-542], previously referred to as complex partial or psychomotor seizures [Holcomb and Dean (2011) Psychomotor Seizures, In Encyclopedia of Child Behavior and Development (Goldstein, S., and Naglieri, J. A., Eds.), pp 1191-1192, Springer US, Boston, Mass.], are induced by low frequency, long duration corneal electrical stimulation (6 Hz, 0.2 ms rectangular pulse width, 3 s duration, 44 mA) and are characterized by stun, twitching of the vibrissae, forelimb clonus, and Straub tail. […] Stimulated mice with a seizure duration shorter than 27 seconds were thus considered to be protected. […] Besides, this study provides another example of the translation of results from zebrafish to rodent seizure models.
Experimental procedure was described in Copmans et al. (2018) Neurochem. Int. 112, 124-133. before Buenafe et al. cited above; Orellana-Paucar cited above. In brief, NMRI mice (average weight 28 g, range 23-32 g) were randomly divided into control and treatment groups (n=5-10). 50 μL (injection volume was adjusted to the individual weight) of VHC (PEG200:DMSO:water; 0.25:0.25:0.5) or treatment (an ASD or test compound dissolved in VHC) was i.p. injected in mice and after 30 or 120 (in case of phenytoin, as reported by Barton et al. cited above) min psychomotor seizures were induced by low frequency, long duration corneal electrical stimulation (6 Hz, 0.2 ms rectangular pulse width, 3 s duration, 44 mA) using an ECT Unit 5780 (Ugo Basile, Comerio, Italy). Mice were manually restrained and a drop of ocular anesthetic (0.5% lidocaine) was applied to the corneas before stimulation. Following electrical current stimulation, the mouse was released in a transparent cage for behavioral observation, which was video-recorded. […] In addition, facial and mouth jerking as well as head nodding were observed occasionally. Mice displaying normal exploratory and locomotion behavior within a time period of 26 seconds were considered to be protected against the induced psychomotor seizures. Seizure durations were measured during the experiment by experienced researchers, familiar with the different seizure behaviors. In addition, seizure durations were determined by blinded video analysis to confirm or correct the initial observations. Data are expressed as mean±SD.

The next data set has as its system SHSY5Y cells. In words: Cell viability MTT assay, SHSY5Y cells. Type of data set: cell-based, human. The settings on record: 24 h incubation; for IC50: read-out: Cytotoxicity SHSY5Y cells IC50. Here is the method: Protocol was based on literature [Patel and Patel. (2011) J. App. Pharm. Sci 1, 167-171]. Three cell lines were used: a) Hep G2 (HB-8065), a well-differentiated human hepatocellular carcinoma cell line, b) THLE-2, human liver epithelial cells transformed with SV40 large T-antigen and c) SHSYSY, a thrice-cloned sub-line of a human metastatic bone tumor. Cells were seeded at a concentration of 1×10^4 cells/well in 200 μL culture medium and incubated at 37° C. in 5% CO2 using 96-well plates for 24 h. Next, the medium was replaced with medium complemented with test compounds. After another 24 h incubation, the medium was replaced by 100 μL of a MTT (3-(4,5-dimethylthiazol-2-yl)-2,5-diphenyltetrazolium bromide) solution (5 mg/mL in PBS and diluted at 0.5 mg/mL in MEM without phenol red). The plates were gently shaken and incubated for 3 hours at 37° C. in a 5% CO2 incubator. The supernatant was removed and 100 μL of 100% DMSO was added. The plates were gently shaken to solubilize the formed formazan. The absorbance was measured using a multireader (Victor2 (Wallac)) at a wavelength of 570 nm.

A short description of another data set: Kinetic solubility assay. Type of data set: physicochemical. Conditions: for Kinetic solubility: 2 h incubation, absorbance 620 nm. Here is the method: Protocol was based on literature [Perez et al. (2015) J Biomol Screen 20, 254-264]. The kinetic solubility assay was conducted in 96-well, flat-bottom, transparent polystyrene plates (Costar 9018, Corning, Tewksbury, Mass.). Six two-fold serial dilutions of an initial 10 mM test compound solution were prepared in DMSO. After a 2 h incubation period (to avoid missing slow precipitation) absorbance was measured at 620 nm by an EnVision multilabel plate reader. The kinetic solubility was estimated from the concentration of test compound that produced an increase in absorbance above the background levels (i.e. 1% DMSO in buffer).

Data set [1] can be described thus: Metabolic stability assay (hepatic clearance). Conditions: human liver microsomes; for Hepatic clearance / Hepatic clearance t1/2 (half-life): 1 μM. Type of data set: in vitro ADME. On the procedure:
The assay was performed with a mixture of test compounds (1 μM), NADPH (4 mM) and Human Liver Microsomes (HLM) (1 mg/mL) incubated at 37° C. Reactions were quenched at 0, 15, 30, 45, 60, and 90 min, using an equal volume of acetonitrile and then diluted 1:1 with water prior to analysis by LC-MS/MS. The analysis was performed using an Agilent Series 1290 LC system (Agilent Technologies, Santa Clara, Calif., USA) using a Supelco Discovery HS C18 (2.1×50 mm) 3 µm column that was held at 30° C. Solvent A contained water with 0.1% formic acid and solvent B contained acetonitrile with 0.1% formic acid, and the flow rate was set at 400 μL/min. The gradient elution was performed as follows: 0-0.5 min 0% eluent B; 0.5-7 min 100% eluent B; 7-9 min 100% eluent B; 9-9.2 min 0% eluent B; and 9.2-10.5 min 0% eluent B. An API 4000 mass spectrometer in positive ESI mode (AB SCIEX, Concord, ON, Canada) was used with a generic method for data acquisition on all compounds. Data processing was performed using MultiQuant Software (AB SCIEX, Concord, ON, Canada) to process the data. Peak areas were used to plot the Ln % remaining relative to time (t)=0. The slope of the natural log of the percent remaining versus time was calculated to determine the first-order rate constant (k) and the half-life (t1/2) of the test compounds according to the following equation: t1/2=0.693/k (min)

The term IC50 denotes the point on the concentration scale where inhibition reaches its midpoint. In the case of `CCc1ccc(C2=C(C)C(=O)C3(O2)C(=O)NC(OC)(C(=O)c2ccccc2)C3O)o1` (stereo not drawn) [azaspirofuran A], in the data set on NMRI mice (40 mg/kg i.p.), the mean seizure duration stood at 24 s and the “mice protected against induced seizures” value is reported as 5 out of 7. Further, the antiseizure activity result in the data set on NMRI mice (20 and 10 mg/kg i.p.) is listed as “no significant effects”. In the data set with SHSY5Y cells, the “Cytotoxicity SHSY5Y cells, effect” value is listed as “Weak” and the IC50 was above 50 µM. In “Kinetic solubility assay”, the “Kinetic solubility, rating” value is reported as “Acceptable” and the Kinetic solubility was above 100 µM. In addition, in data set [1], the “Hepatic clearance, rating” value is listed as “Medium”; the Hepatic clearance is recorded as 20.17 μL/ μL/min/mg protein; the “Hepatic clearance t1/2 (half-life)” value amounted to 33 min. The “Hepatic clearance t1/2 (half-life)” value in data set [1] (listed as Azaspirofuran A) came to 33.12 min.

In the case of `CC/C=C\[C@H](O)[C@H](O)C1=C(C)C(=O)[C@]2(O1)C(=O)N[C@](OC)(C(=O)c1ccccc1)[C@H]2O` [pseurotin A2], the antiseizure activity result in the data set on NMRI mice (2.5 mg/kg i.p.) is “inactive”. In addition, in the data set on NMRI mice (10 mg/kg i.p.), the mean seizure duration stood at 27 s and the “mice protected against induced seizures” value is given as 5 out of 6. In the data set with NMRI mice (40 mg/kg i.p.), the mean seizure duration was 26 s and the “mice protected against induced seizures” value is 4 out of 7. Also, in the data set with SHSY5Y cells, the “Cytotoxicity SHSY5Y cells, effect” value is “Decrease” and the IC50 came to 17.9 µM. For the same molecule, in the data set “Kinetic solubility assay”, the “Kinetic solubility, rating” value is recorded as “Acceptable” and the Kinetic solubility is above 100 µM. Besides, in data set [1], the “Hepatic clearance, rating” value is reported as “Low”; the Hepatic clearance is listed as below 8.6 μL/ μL/min/mg protein; the “Hepatic clearance t1/2 (half-life)” value is above 60 min. Also, the “Hepatic clearance t1/2 (half-life)” value in data set [1] (listed as Pseurotin A2) is above 60 min.
